According to the CheMixHub viscosity set:

Experiment: xn = mol fraction of the nth substance listed

CCc1ccccc1 + Cc1ccccc1
Conditions | viscosity [mPa·s]
293.15 K, 101.33 kPa, x2 = 0.1809 | 0.652
293.15 K, 101.33 kPa, x2 = 0.3695 | 0.636
293.15 K, 101.33 kPa, x2 = 0.5187 | 0.623
293.15 K, 101.33 kPa, x2 = 0.6606 | 0.611
293.15 K, 101.33 kPa, x2 = 0.8474 | 0.597
298 K, 101 kPa, x2 = 0.1175 | 0.6248
298 K, 101 kPa, x2 = 0.2654 | 0.6174
298 K, 101 kPa, x2 = 0.4661 | 0.6001
298 K, 101 kPa, x2 = 0.5586 | 0.5944
298 K, 101 kPa, x2 = 0.6327 | 0.5864
298 K, 101 kPa, x2 = 0.8164 | 0.5675
298 K, 101 kPa, x2 = 0.9082 | 0.5576
298 K, 101 kPa, x2 = 0.9658 | 0.5598
298.15 K, 101.3 kPa, x2 = 0.1427 | 0.6196
298.15 K, 101.3 kPa, x2 = 0.2444 | 0.609
298.15 K, 101.3 kPa, x2 = 0.3777 | 0.5992
298.15 K, 101.3 kPa, x2 = 0.4928 | 0.5905
298.15 K, 101.3 kPa, x2 = 0.5425 | 0.5867
298.15 K, 101.3 kPa, x2 = 0.6355 | 0.5789
298.15 K, 101.3 kPa, x2 = 0.7353 | 0.5716
298.15 K, 101.3 kPa, x2 = 0.8573 | 0.5614
298.15 K, 101.3 kPa, x2 = 0.9453 | 0.5549
298.15 K, 101.33 kPa, x2 = 0.1308 | 0.623
298.15 K, 101.33 kPa, x2 = 0.2529 | 0.616
298.15 K, 101.33 kPa, x2 = 0.3685 | 0.604
298.15 K, 101.33 kPa, x2 = 0.4784 | 0.592
298.15 K, 101.33 kPa, x2 = 0.6663 | 0.58
298.15 K, 101.33 kPa, x2 = 0.8024 | 0.568
298.15 K, 101.33 kPa, x2 = 0.9209 | 0.56
303.15 K, 101.3 kPa, x2 = 0.0366 | 0.5902
303.15 K, 101.3 kPa, x2 = 0.1427 | 0.5808
303.15 K, 101.3 kPa, x2 = 0.2444 | 0.5729
303.15 K, 101.3 kPa, x2 = 0.3777 | 0.5639
303.15 K, 101.3 kPa, x2 = 0.4928 | 0.5556
303.15 K, 101.3 kPa, x2 = 0.5425 | 0.5522
303.15 K, 101.3 kPa, x2 = 0.6355 | 0.545
303.15 K, 101.3 kPa, x2 = 0.7353 | 0.5371
303.15 K, 101.3 kPa, x2 = 0.8573 | 0.528
303.15 K, 101.3 kPa, x2 = 0.9453 | 0.5223
303.15 K, 101.33 kPa, x2 = 0.1809 | 0.581
303.15 K, 101.33 kPa, x2 = 0.3695 | 0.565
303.15 K, 101.33 kPa, x2 = 0.5187 | 0.554
303.15 K, 101.33 kPa, x2 = 0.6606 | 0.546
303.15 K, 101.33 kPa, x2 = 0.8474 | 0.533
313.15 K, 101.33 kPa, x2 = 0.1809 | 0.52
313.15 K, 101.33 kPa, x2 = 0.3695 | 0.505
313.15 K, 101.33 kPa, x2 = 0.5187 | 0.496
313.15 K, 101.33 kPa, x2 = 0.6606 | 0.49
313.15 K, 101.33 kPa, x2 = 0.8474 | 0.479
323.15 K, 101.33 kPa, x2 = 0.1809 | 0.46
323.15 K, 101.33 kPa, x2 = 0.3695 | 0.459
323.15 K, 101.33 kPa, x2 = 0.5187 | 0.447
323.15 K, 101.33 kPa, x2 = 0.6606 | 0.443
323.15 K, 101.33 kPa, x2 = 0.8474 | 0.43

COC(C)(C)C + Cc1ccccc1
298.15 K, 101 kPa
Conditions | viscosity [mPa·s]
x1 = 0.05 | 0.541
x1 = 0.1 | 0.528
x1 = 0.2001 | 0.505
x1 = 0.3002 | 0.479
x1 = 0.4001 | 0.458
x1 = 0.5001 | 0.438
x1 = 0.6001 | 0.419
x1 = 0.6998 | 0.398
x1 = 0.8 | 0.383
x1 = 0.8999 | 0.372
x1 = 0.9502 | 0.365
